Laboratory results reported in publication PMC6237173, “Synthesis of novel 6,7-dimethoxy-4-anilinoquinolines as potent c-Met inhibitors” (Journal of Enzyme Inhibition and Medicinal Chemistry, 2018).

Columns and labels:
[1] = system: MCF-7 (human breast cancer) cell line; assay: Cell proliferation assay (MTT), MCF-7; format: cell-based; details: MCF7, 48 h exposure, n = 3 (mean ± SD), read-out: Proliferative inhibition IC50, MCF-7
Description: (§1) The anti-proliferative activities of the prepared compounds (12a-12s) were evaluated against A549, MCF-7 and MKN-45 cell lines by MTT assay in vitro. Briefly, tumour cells were cultured to log phase in RPMI 1640 medium supplemented with 10% foetal bovine serum (FBS). After diluting to 2 × 10^4 cells mL^−1 with the complete medium, 100 µL of the obtained cell suspension was added to each well of 96-well culture plates. Subsequently, incubation was performed at 37 °C in 5% CO2 for 24 h before the anti-proliferative assessment. Tested samples at pre-set concentrations were added to 6 wells with cabozantinib as a positive reference. After 48 h exposure period, 40 µL of PBS containing 2.5 mg mL^−1 of MTT was added to each well. Four hours later, 100 µL extraction solution (10% SDS-5% isobutyl alcohol-0.010M HCl) was added. After an overnight incubation at 37°C, the absorbance was measured at a wavelength of 570 nm with an ELISA microplate reader. All compounds were tested three times in each tumour cell lines. The IC50 values were the averages of three determinations and calculated by concentration-response curve fitting method.
(§2) All the synthesised compounds […] were evaluated for their antiproliferation activities against A549 (human lung cancer), MCF-7 (human breast cancer) and MKN-45 (human gastric cancer) cell lines by MTT assay, using cabozantinib as the positive control.

[2] = system: A549 (human lung cancer) cell line; assay: Cell proliferation assay (MTT), A549; format: cell-based; details: 48 h exposure, n = 3 (mean ± SD), read-out: Proliferative inhibition IC50, A549
Description: as §1, §2

c-Met kinase = target: T1, c-Met kinase (Homo sapiens, UniProt P08581); assay: c-Met inhibition assay (Caliper motility shift assay); format: biochemical; details: for c-Met inhibition % Inhibition (10 μΜ): 10 μΜ compound; for c-Met inhibition % Inhibition (10 μΜ) / IC50: n = 3 (mean ± SD); for c-Met inhibitory activity in words: SAR statement, ortho-substituted compounds; for fold lower c-Met activity than compound 12c: versus 12c
T1 construct: purchased Carna
T1 sequence (P08581 25-1390): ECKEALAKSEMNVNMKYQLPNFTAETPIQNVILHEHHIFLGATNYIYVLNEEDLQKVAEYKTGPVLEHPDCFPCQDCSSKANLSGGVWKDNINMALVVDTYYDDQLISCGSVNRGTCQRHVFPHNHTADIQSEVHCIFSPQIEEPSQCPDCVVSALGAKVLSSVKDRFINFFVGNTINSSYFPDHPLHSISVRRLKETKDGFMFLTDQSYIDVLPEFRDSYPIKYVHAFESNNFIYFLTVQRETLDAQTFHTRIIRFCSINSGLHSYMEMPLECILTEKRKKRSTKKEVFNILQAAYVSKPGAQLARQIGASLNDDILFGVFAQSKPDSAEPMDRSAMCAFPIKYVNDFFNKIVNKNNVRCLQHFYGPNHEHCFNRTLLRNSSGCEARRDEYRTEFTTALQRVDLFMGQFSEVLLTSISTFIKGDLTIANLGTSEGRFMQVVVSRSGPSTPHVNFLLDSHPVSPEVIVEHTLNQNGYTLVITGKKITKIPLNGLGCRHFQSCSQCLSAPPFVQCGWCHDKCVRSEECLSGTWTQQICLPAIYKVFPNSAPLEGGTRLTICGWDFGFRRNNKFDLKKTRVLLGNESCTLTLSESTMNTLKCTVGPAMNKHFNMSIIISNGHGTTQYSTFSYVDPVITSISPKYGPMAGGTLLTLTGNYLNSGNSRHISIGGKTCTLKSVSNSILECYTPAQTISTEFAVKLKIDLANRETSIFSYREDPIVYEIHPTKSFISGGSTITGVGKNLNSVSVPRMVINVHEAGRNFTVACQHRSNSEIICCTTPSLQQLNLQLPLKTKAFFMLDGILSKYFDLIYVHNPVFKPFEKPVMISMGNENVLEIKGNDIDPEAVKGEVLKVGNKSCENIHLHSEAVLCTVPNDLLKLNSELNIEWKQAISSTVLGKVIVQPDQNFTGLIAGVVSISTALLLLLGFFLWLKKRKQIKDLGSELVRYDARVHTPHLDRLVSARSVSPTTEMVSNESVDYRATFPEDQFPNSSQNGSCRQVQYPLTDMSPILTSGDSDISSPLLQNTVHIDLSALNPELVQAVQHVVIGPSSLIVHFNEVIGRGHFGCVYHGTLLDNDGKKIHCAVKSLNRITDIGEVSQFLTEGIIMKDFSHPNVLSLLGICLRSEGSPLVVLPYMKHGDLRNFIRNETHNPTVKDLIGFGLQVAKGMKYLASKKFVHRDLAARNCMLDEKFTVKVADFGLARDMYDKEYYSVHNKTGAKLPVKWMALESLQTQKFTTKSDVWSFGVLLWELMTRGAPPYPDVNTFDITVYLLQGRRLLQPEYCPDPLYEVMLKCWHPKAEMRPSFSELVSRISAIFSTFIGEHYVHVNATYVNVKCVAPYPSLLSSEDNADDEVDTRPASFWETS
Description: A Caliper motility shift assay was applied to test the potency of synthesised compounds against c-Met kinase. Briefly, the compounds were dissolved in DMSO (Sigma) at 0.5 mM concentration, and then were diluted 50× to the final desired highest inhibitor concentration (10 μM) in reaction by DMSO. For all compounds, 100 μL of the diluted compound solution in tubes was transferred to a well on a 96-well plate (Corning) and was serially diluted 10× by transferring 10 μL dilution to 90 μL DMSO in the next well. 100 μL DMSO was added to two empty wells in the same 96-well plate for no compound control and no enzyme control. The plate was marked as source plate. 10 μL of compound solution from source plate was transferred to a new 96-well plate as the intermediate plate. […] After that, 5 μL solution from each well of the intermediate plate was transferred to a 384-well plate (Corning) as the assay plate in duplicates.c-Met kinase (Carna) was added in 1× kinase base buffer to prepare 2.5× enzyme solution, and FAM-labled peptide (GL Biochem) and ATP (Sigma) were added in 1× kinase base buffer to prepare 2.5× peptide solution. 10 μL of 2.5× enzyme solution was added to each well of the 384-well assay plate that already contained 5 μL of compound in 10% DMSO, and then incubated at room temperature for 10 min. […] The data were collected on Caliper and the conversion data were copied from Caliper program.
IC50 values were calculated from three independent experiments by fitting the data in XLfit with the following equation: Y = Bottom + (Top-Bottom)/(1 + (IC50/X)^HillSlope).

[3] = system: MKN-45 (human gastric cancer) cell line; assay: Cell proliferation assay (MTT), MKN-45; format: cell-based; details: 48 h exposure, n = 3 (mean ± SD), read-out: Proliferative inhibition IC50, MKN-45
Description: as §1, §2

Compound	IC50 [1]	IC50 [2]	c-Met inhibition % Inhibition (10 μΜ) (c-Met kinase)	c-Met inhibitory activity in words (c-Met kinase)	IC50 [3]	melting point	IC50 (c-Met kinase)	fold more potent c-Met activity than compound 12b (c-Met kinase; ratio of c-Met IC50 values, versus 12b)	fold lower c-Met activity than compound 12c (c-Met kinase; ratio of c-Met IC50 values)
COc1cc2nccc(Nc3ccc4nc(-c5ccccc5F)[nH]c4c3)c2cc1OC [Compound 12a, N-(2–(2-fluorophenyl)-1H-benzo[d]imidazol-6-yl)-6,7-dimethoxyquinolin-4-amine]	> 100 µM	> 100 µM	16.9 ± 3.5%	diminished activity	> 100 µM	247 to 249 °C			
COc1cc2nccc(Nc3ccc4nc(-c5cccc(F)c5)[nH]c4c3)c2cc1OC [Compound 12b, N-(2–(3-fluorophenyl)-1H-benzo[d]imidazol-6-yl)-6,7-dimethoxyquinolin-4-amine]	48.6 ± 5.2 µM	45 ± 3.3 µM	62.8 ± 1.2%		57.5 ± 1.9 µM	286 to 288 °C	1.2 ± 0.4 µM		
COc1cc2nccc(Nc3ccc4nc(-c5ccc(F)cc5)[nH]c4c3)c2cc1OC [Compound 12c, N-(2–(4-fluorophenyl)-1H-benzo[d]imidazol-6-yl)-6,7-dimethoxyquinolin-4-amine]	11.3 ± 1.6 µM	15.6 ± 2.5 µM	89.2 ± 0.3%		21 ± 1.8 µM	312 to 315 °C	0.11 ± 0.02 µM	11 fold	
COc1cc2nccc(Nc3ccc4nc(-c5ccccc5Cl)[nH]c4c3)c2cc1OC [Compound 12d, N-(2–(2-chlorophenyl)-1H-benzo[d]imidazol-6-yl)-6,7-dimethoxyquinolin-4-amine]	> 100 µM	> 100 µM	17.4 ± 3.7%		> 100 µM	287 to 290 °C			
COc1cc2nccc(Nc3ccc4nc(-c5cccc(Cl)c5)[nH]c4c3)c2cc1OC [Compound 12e, N-(2–(3-chlorophenyl)-1H-benzo[d]imidazol-6-yl)-6,7-dimethoxyquinolin-4-amine]	63.5 ± 4.8 µM	53.8 ± 5 µM	54.5 ± 6.9%		85.7 ± 3.7 µM	250 to 252 °C	4.8 ± 0.5 µM		
COc1cc2nccc(Nc3ccc4nc(-c5ccc(Cl)cc5)[nH]c4c3)c2cc1OC [Compound 12f, N-(2–(4-chlorophenyl)-1H-benzo[d]imidazol-6-yl)-6,7-dimethoxyquinolin-4-amine]	29.2 ± 1.4 µM	32.4 ± 3.6 µM	63.8 ± 0.7%		39.5 ± 2.5 µM	330 to 332 °C	0.93 ± 0.1 µM		about 9 fold
COc1cc2nccc(Nc3ccc4nc(-c5ccc(Br)cc5)[nH]c4c3)c2cc1OC [Compound 12g, N-(2–(4-bromophenyl)-1H-benzo[d]imidazol-6-yl)-6,7-dimethoxyquinolin-4-amine]	46.3 ± 3.7 µM	38.5 ± 2.4 µM	54.2 ± 0.1%		55 ± 3.4 µM	280 to 282 °C	5.5 ± 0.9 µM		about 50 fold
COc1cc2nccc(Nc3ccc4nc(-c5ccccc5I)[nH]c4c3)c2cc1OC [Compound 12h, N-(2–(2-iodophenyl)-1H-benzo[d]imidazol-6-yl)-6,7-dimethoxyquinolin-4-amine]	> 100 µM	92.4 ± 5.1 µM	21.6 ± 2.5%		> 100 µM	207 to 209 °C			
COc1cc2nccc(Nc3ccc4nc(-c5cccc(I)c5)[nH]c4c3)c2cc1OC [Compound 12i, N-(2–(3-iodophenyl)-1H-benzo[d]imidazol-6-yl)-6,7-dimethoxyquinolin-4-amine]	30.5 ± 1.6 µM	23.8 ± 2 µM	66.0 ± 0.8%		36.1 ± 2.7 µM	201 to 203 °C	0.54 ± 0.13 µM		
COc1cc2nccc(Nc3ccc4nc(-c5ccccc5C)[nH]c4c3)c2cc1OC [Compound 12j, 6,7-Dimethoxy-N-(2-(o-tolyl)-1H-benzo[d]imidazol-6-yl)quinolin-4-amine]	> 100 µM	> 100 µM	23.0 ± 0.4%		> 100 µM	174 to 175 °C			
COc1cc2nccc(Nc3ccc4nc(-c5cccc(C)c5)[nH]c4c3)c2cc1OC [Compound 12k, 6,7-Dimethoxy-N-(2-(m-tolyl)-1H-benzo[d]imidazol-6-yl)quinolin-4-amine]	78.3 ± 3.5 µM	72.6 ± 6.5 µM	52.7 ± 1.6%		87.2 ± 6.7 µM	339 to 342 °C	8.5 ± 2 µM		
COc1cc2nccc(Nc3ccc4nc(-c5ccc(C)cc5)[nH]c4c3)c2cc1OC [Compound 12l, 6,7-Dimethoxy-N-(2-(p-tolyl)-1H-benzo[d]imidazol-6-yl)quinolin-4-amine]	24 ± 0.9 µM	27.3 ± 1.6 µM	69.0 ± 1.2%		31.8 ± 1.4 µM	316 to 319 °C	0.32 ± 0.07 µM		
CCc1ccc(-c2nc3ccc(Nc4ccnc5cc(OC)c(OC)cc45)cc3[nH]2)cc1 [Compound 12m, N-(2–(4-ethylphenyl)-1H-benzo[d]imidazol-6-yl)-6,7-dimethoxyquinolin-4-amine]	18.4 ± 2.1 µM	12.5 ± 1.3 µM	95.0 ± 0.3%		14.9 ± 0.7 µM	210 to 212 °C	0.056 ± 0.012 µM		
COc1cc2nccc(Nc3ccc4nc(-c5ccc(C(C)(C)C)cc5)[nH]c4c3)c2cc1OC [Compound 12n, N-(2–(4-(tert-butyl)phenyl)-1H-benzo[d]imidazol-6-yl)-6,7-dimethoxyquinolin-4-amine]	6.1 ± 0.6 µM	7.3 ± 1 µM	97.1 ± 3.5%		13.4 ± 0.5 µM	257 to 259 °C	0.03 ± 0.008 µM		
COc1cc2nccc(Nc3ccc4nc(-c5ccccc5OC)[nH]c4c3)c2cc1OC [Compound 12o, 6,7-Dimethoxy-N-(2–(2-methoxyphenyl)-1H-benzo[d]imidazol-6-yl)quinolin-4-amine]	> 100 µM	> 100 µM	24.2 ± 0.1%		> 100 µM	164 to 166 °C			
COc1cc2nccc(Nc3ccc4nc(-c5c(F)cccc5F)[nH]c4c3)c2cc1OC [Compound 12p, N-(2–(2,6-difluorophenyl)-1H-benzo[d]imidazol-6-yl)-6,7-dimethoxyquinolin-4-amine]	> 100 µM	> 100 µM	25.9 ± 1.5%	loss of activity	> 100 µM	208 to 210 °C			
COc1cc2nccc(Nc3ccc4nc(-c5c(Cl)cccc5Cl)[nH]c4c3)c2cc1OC [Compound 12q, N-(2–(2,6-dichlorophenyl)-1H-benzo[d]imidazol-6-yl)-6,7-dimethoxyquinolin-4-amine]	> 100 µM	> 100 µM	37.0 ± 4.0%	loss of activity	> 100 µM	254 to 257 °C			
COc1cc2nccc(Nc3ccc4nc(-c5ccc(Cl)c(Cl)c5)[nH]c4c3)c2cc1OC [Compound 12r, N-(2–(3,4-dichlorophenyl)-1H-benzo[d]imidazol-6-yl)-6,7-dimethoxyquinolin-4-amine]	79.2 ± 1.7 µM	83.6 ± 4 µM	55.4 ± 2.9%		> 100 µM	336 to 338 °C	5.3 ± 1.6 µM		
COc1cc2nccc(Oc3ccc(NC(=O)C4(C(=O)Nc5ccc(F)cc5)CC4)cc3)c2cc1OC [cabozantinib, reference compound]	7.2 ± 0.5 µM	4.5 ± 0.8 µM			11.8 ± 1.4 µM				
